The numbers were not newly measured in US10306887B2, “Composition and methods for modulation of the octopamine receptor and its homologs” (THE BOARD OF REGENTS OF THE UNIVERSITY OF TEXAS SYSTEMS, priority 2014, dated 2019), which cites them from elsewhere.

Molecules are shown by their SMILES. Entries after “also recorded” stand apart in the source; their conditions may differ.

The subject of series [1] is mated tdc2 or tβh females.
The subject of series [2] is dissected reproductive system.

Turning to `NCC(O)c1ccc(O)cc1` (stereo not drawn) [OA, β,4-dihydroxyphenethylamine], the egg-laying result in series [1] (OA feeding, mated tdc2 or tβh mutant females) is on record as “sufficient to induce egg-laying”. Further, in series [1] (feeding OA to mated tβh mutant females), the sterility result is recorded as “rescues sterility”. Also, the “muscle contractions in the ovary” value in series [2] (OA applied to dissected reproductive system, ovary) is given as “enhances muscle contractions in the ovary”. Further, the “muscle contractions in the oviduct” value in series [2] (OA applied to reproductive system, oviduct) is on record as “inhibits them in the oviduct; also recorded: relaxes the oviduct muscle”.
